Assay [1] in a line: Hypotension in the anesthetized dog by the intravenous route. The assay is classed as in vivo. The protocol:
In the use of the compounds of the invention to produce hypotensive effects in warm-blooded animals, administration by the injectable route is preferred, preferably the intravenous route.
Thus in the anesthetized dog by the intravenous route the dose to produce hypotension is from about 1 mg/kg. to about 200 mg/kg. and preferably from about 10 mg/kg. to about 100 mg/kg. Using this procedure the following results were obtained.

For assay [2], the system named is bronchoconstricting effects of a standard dose of acetylcholine. In words: Bronchodilation by aerosol inhalation in the guinea pig (method of Rosenthale et al.). The assay is classed as in vivo. More on the design: dose or concentration left out as unconfirmed. The source says:
In using the compounds of the invention to produce bronchodilating effects in warm-blooded animals, they may be administered in a variety of dosage forms: oral, injectable, and aerosol inhalation. Aerosol inhalation is a preferred method because of its rapid onset of action, great potency, and specificity of action. The particular dosage to obtain the bronchodilating effect will vary with the particular compound employed, the particular animal involved, and the degree of bronchodilation desired. […] The bronchodilation produced upon aerosol inhalation can be observed by the method of Rosenthale et al., J. Pharmacol. Exp. Ther., 178, 541 (1971). Using this procedure the following result was obtained.

The compound `CCCCC[C@H](O)/C=C/[C@H]1CC[C@@](C)(O)[C@@H]1C/C=C\CCCC(=O)O` [7-(5β-Hydroxy-2β-[(3S)-3-Hydroxy-Trans-1-Octenyl]-5α-Methyl-1α-Cyclopentyl)-Cis-5-Heptenoic Acid] had a Δb.p. in assay [1] (Dose 100 mg/kg.) of -19 mm. Hg. For the compound `C#CC(O)(/C=C/[C@H]1CCC(O)(C#C)[C@@H]1C/C=C\CCCC(=O)O)CCCCC` (stereo partly drawn) [7-[(5RS)-5-Ethynyl-2β-((3RS)-3-Ethynyl-3-Hydroxy-Trans-1-Octenyl)-5-Hydroxy-1α-Cyclopentyl]-Cis-5-Heptenoic Acid], the “Percent Inhibition of the bronchoconstricting effects of a standard dose of acetylcholine” value in assay [2] came to 48%. The compound further came in with a Δb.p. in assay [1] (Dose 100 mg/kg.) of -26 mm. Hg.

Turning to `C#CC1(O)CC[C@H](/C=C/[C@@H](O)CCCCC)[C@H]1C/C=C\CCCC(=O)O` (stereo partly drawn) [7-[(5RS)-5-Ethynyl-5-Hydroxy-2β-((3S)-3-Hydroxy-Trans-1-Octenyl)-1α-Cyclopentyl]-Cis-5-Heptenoic Acid], the Δb.p. in assay [1] (Dose 10 mg/kg.) was -40 mm. Hg. In assay [1] (Dose 100 mg/kg.), `CCCCC[C@H](O)/C=C/[C@H]1CC[C@](C)(O)[C@@H]1C/C=C\CCCC(=O)O` [7-(5α-Hydroxy-2β-[(3S)-3-Hydroxy-Trans-1-Octenyl]-5β-Methyl-1α-Cyclopentyl)-Cis-5-Heptenoic Acid] showed a Δb.p. of -23 mm. Hg.
